Results on two compounds are retold here after patent US6387922B2, “Annulated azole derivatives useful as microbicidal agents” (Bayer Aktiengesellschaft, priority 1997, dated 2002).

SMILES strings stand for the structures.

For data set [1], the system named is Plasmopara viticola. The data set is described as follows: Plasmopara Test (grapevine)/protective. It counts as in vivo. Conditions: grapevine young plants, protective spray, application rate 100 g/ha, evaluation 6 days after inoculation; 0% = as control, 100% = no infection. The procedure: Plasmopara Test (grapevine)/protective
(§1) Solvent: 47 parts by weight of acetone
(§2) Emulsifier: 3 parts by weight of alkyl-aryl polyglycol ether
To produce a suitable preparation of the active compound, 1 part by weight of active compound is mixed with the stated amounts of solvent and emulsifier, and the concentrate is diluted with water to the desired concentration.
To test for protective activity, young plants are sprayed with a preparation of active compound at the stated application rate. After the spray coating has dried on, the plants are inoculated with an aqueous spore suspension of Plasmopara viticola and then remain in an incubation cabin at approximately 20° C. and 100% relative atmospheric humidity for 1 day. The plants are then placed in a greenhouse at approximately 21° C. and approximately 90% atmospheric humidity for 5 days. The plants are then moistened and placed in an incubation cabin for 1 day.
Evaluation is carried out 6 days after the inoculation. 0% means an efficacy which corresponds to that of the control, whereas an efficacy of 100% means that no infection is observed.

The test system of data set [2] is Venturia inaequalis. Briefly: Venturia Test (Apple)/protective. It counts as in vivo. Conditions: apple young plants, protective spray, application rate 100 g/ha, evaluation 12 days after inoculation; 0% = as control, 100% = no infection. As for the experimental part: Venturia Test (Apple)/protective
as §1, §2
To produce a suitable preparation of active compound, 1 part by weight of active compound is mixed with the stated amounts of solvent and emulsifier, and the concentrate is diluted with water to the desired concentration.
To test for protective activity, young plants are sprayed with the preparation of active compound at the stated application rate. After the spray coating has dried on, the plants are inoculated with an aqueous conidia suspension of the causative organism of apple scab Venturia inaequalis and then remain in an incubation cabin at approximately 20° C. and 100% relative atmospheric humidity for 1 day.
The plants are then placed in a greenhouse at approximately 21° C. and a relative atmospheric humidity of approximately 90%.
Evaluation is carried out 12 days after the inoculation. 0% means an efficacy which corresponds to that of the control, whereas an efficacy of 100% means that no infection is observed.

As to `Cc1noc(C)c1S(=O)(=O)n1nnc2ccccc21` [1-(3,5-dimethyl-isoxazol-4-sulphonyl)-1H-benzotriazole, reference compound], the results for the Efficacy in % in data set [1] and in data set [2] were 49% and 0%, respectively.
`Cc1noc(C)c1S(=O)(=O)n1cnc2cnccc21` [Example 2, 1-(3,5-dimethyl-isoxazole-4-sulphonyl)-1H-imidazo[4,5-c]pyridine] had a melting point of 130 to 135 °C. Moreover, the Efficacy in % in data set [1] was determined as 90%. Besides, the Efficacy in % in data set [2] was found to be 95%.

What is called melting point is the temperature of the solid-liquid transition.
